The target of data set [1] is T1, Hepatic sodium/bile acid cotransporter (Rattus norvegicus, UniProt P26435).
T1 sequence (P26435 whole entry): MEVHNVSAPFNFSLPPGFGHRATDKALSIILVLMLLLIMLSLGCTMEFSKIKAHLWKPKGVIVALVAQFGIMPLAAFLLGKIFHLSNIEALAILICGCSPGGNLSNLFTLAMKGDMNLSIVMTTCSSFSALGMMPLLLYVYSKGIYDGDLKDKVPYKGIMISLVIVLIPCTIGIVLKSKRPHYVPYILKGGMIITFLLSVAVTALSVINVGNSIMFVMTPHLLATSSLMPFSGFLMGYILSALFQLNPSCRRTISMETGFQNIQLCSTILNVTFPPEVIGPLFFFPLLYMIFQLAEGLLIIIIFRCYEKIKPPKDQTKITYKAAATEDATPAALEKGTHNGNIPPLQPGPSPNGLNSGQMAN
The data set can be described thus: TP_TRANSPORTER: uptake in Ntcp-expressing COS-7 cells. The class given is functional, cell-based. The note with it: monkey.

In data set [2] the target is T2, Solute carrier organic anion transporter family member 1A1 (Rattus norvegicus, UniProt P46720).
T2 sequence (P46720 whole entry): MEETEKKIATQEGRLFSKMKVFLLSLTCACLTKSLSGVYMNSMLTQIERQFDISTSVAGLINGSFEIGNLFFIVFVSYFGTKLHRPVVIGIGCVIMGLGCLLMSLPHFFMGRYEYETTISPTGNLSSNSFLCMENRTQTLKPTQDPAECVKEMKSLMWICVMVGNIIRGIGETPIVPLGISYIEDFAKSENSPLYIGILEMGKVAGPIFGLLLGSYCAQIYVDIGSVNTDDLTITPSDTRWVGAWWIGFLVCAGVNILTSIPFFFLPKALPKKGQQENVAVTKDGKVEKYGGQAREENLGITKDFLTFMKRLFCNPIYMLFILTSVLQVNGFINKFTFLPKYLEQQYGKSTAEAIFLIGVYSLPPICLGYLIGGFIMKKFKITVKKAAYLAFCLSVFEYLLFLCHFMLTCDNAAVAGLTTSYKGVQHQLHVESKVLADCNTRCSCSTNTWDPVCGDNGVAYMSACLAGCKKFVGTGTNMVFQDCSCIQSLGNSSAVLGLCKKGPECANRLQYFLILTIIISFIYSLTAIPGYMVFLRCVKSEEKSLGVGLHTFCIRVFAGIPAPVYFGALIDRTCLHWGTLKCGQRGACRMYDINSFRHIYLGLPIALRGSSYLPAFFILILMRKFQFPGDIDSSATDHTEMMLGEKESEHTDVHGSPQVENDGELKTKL
The data set can be described thus: TP_TRANSPORTER: uptake in Oatp1-expressing COS-7 cells. The class given is functional, cell-based. The note with it: monkey.

Molecules are shown by their SMILES. Peptide text beside a SMILES is read from it.

Regarding `CC(C)C[C@@H]1NC(=O)[C@@H](C(C)C)NC(=O)[C@@H]2CCCN2C(=O)[C@@H](CC(=O)O)NC(=O)[C@@H](Cc2c[nH]c3ccccc23)NC1=O` [BQ-123] (HELM PEPTIDE1{L.[dW].[dD].P.[dV]}$PEPTIDE1,PEPTIDE1,1:R1-5:R2$$$V2.0), the Activity entry in data set [1] and in data set [2] was “is not a substrate [-]” in each case.
